Laboratory results from patent US9409922B2, “Imidazopyridine macrocycles as inhibitors of human immunodeficiency virus replication” (priority 2014, dated 2016).

Test system: NL-RLuc virus
Test: Inhibition of HIV replication: NL-RLuc reporter virus in MT-2 cells, luciferase readout
Format: cell-based
Conditions: MT-2 cells infected with NL-RLuc virus, 5 days of incubation, 10% FBS, at least 2 experiments
Excerpt: Inhibition of HIV Replication:
A recombinant NL-RLuc proviral clone was constructed in which a section of the nef gene from NL4-3 was replaced with the Renilla Luciferase gene. This virus is fully infectious and can undergo multiple cycles of replication in cell culture. In addition, the luciferous reporter provides a simple and easy method for quantitating the extent of virus growth and consequently, the antiviral activity of test compounds. The plasmid pNLRLuc contains the proviral NL-Rluc DNA cloned into pUC 18 at the PvuII site. The NL-RLuc virus was prepared by transfection of 293T cells with the plasmid pNLRLuc. Transfections were performed using the LipofectAMINE PLUS kit from Invitrogen (Carlsbad, Calif.) according to the manufacturer and the virus generated was titered in MT-2 cells. For susceptibility analyses, the titrated virus was used to infect MT-2 cells in the presence of compound, and after 5 days of incubation, cells were processed and quantitated for virus growth by the amount of expressed luciferase. Assay media was RPMI 1640 supplemented with 10% heat inactivated fetal bovine serum (FBS), 100 units/ml penicillin G/100 units/ml streptomycin, 10 mM HEPES buffer pH 7.55 and 2 mM L-glutamine. The results from at least 2 experiments were used to calculate the EC50 values. Luciferase was quantitated using the Dual Luciferase kit from Promega (Madison, Wis.). Susceptibility of viruses to compounds was determined by incubation in the presence of serial dilutions of the compound. The 50% effective concentration (EC50) was calculated by using the exponential form of the median effect equation where (Fa)=1/[1+(ED50/drug conc.)^m](Johnson V A, Byington R T. Infectivity Assay. In Techniques in HIV Research. ed. Aldovini A, Walker B D. 71-76. New York: Stockton Press. 1990).

[1] = Human immunodeficiency virus 1, MT2, 120 h

Row | SMILES | EC50 [1] | EC50
1 | C=Cc1c(C)c([C@H](OC(C)(C)C)C(=O)O)c2n3cc(nc13)-c1cccc(c1)-c1cc(F)ccc1O[C@@H](C)CCCCOC1(C)CCN2CC1 [Example 38, (2S)-2-(tert-Butoxy)-2-[(22S)-5-ethenyl-17-fluoro-4,22,28-trimethyl-21,27-dioxa-1,7,34-triazahexacyclo[26.2.2.1^6,^9.1^10,^14.0^2,^7.0^15,^20]tetratriaconta-2,4,6(34),8,10(33),11,13,15(20),16,18-decaen-3-yl]acetic acid] | 93 nM | 
2 | Cc1c([C@H](OC(C)(C)C)C(=O)O)c2n3cc(nc3c1-c1ccncc1)-c1cccc(c1)-c1cc(F)ccc1O[C@@H](C)CCCCOC1(C)CCN2CC1 [Example 39, (2S)-2-(tert-Butoxy)-2-[(22S)-17-fluoro-4,22,28-trimethyl-5-(pyridin-4-yl)-21,27-dioxa-1,7,34-triazahexacyclo[26.2.2.1^6,^9.1^10,^14.0^2,^7.0^15,^20]tetratriaconta-2,4,6(34),8,10(33),11,13,15(20),16,18-decaen-3-yl]acetic acid] | 12 nM | 
3 | Cc1c([C@H](OC(C)(C)C)C(=O)O)c2n3cc(nc3c1C)-c1cccc(c1)-c1cc(F)c(F)cc1O[C@@H](C)CCCCOC1(C)CCN2CC1 [Example 41, (2S)-2-(tert-Butoxy)-2-[(22S)-17,18-difluoro-4,5,22,28-tetramethyl-21,27-dioxa-1,7,34-triazahexacyclo[26.2.2.1^6,^9.1^10,^14.0^2,^7.0^15,^20]tetratriaconta-2,4,6(34),8,10(33),11,13,15(20),16,18-decaen-3-yl]acetic acid] | 13 nM | 
4 | Cc1c([C@H](OC(C)(C)C)C(=O)O)c2n3cc(nc3c1C)-c1cccc(c1)-c1cc(OC(F)(F)F)ccc1O[C@@H](C)CCCCOC1(C)CCN2CC1 [Example 42, (2S)-2-(tert-Butoxy)-2-[(22S)-4,5,22,28-tetramethyl-17-(trifluoromethoxy)-21,27-dioxa-1,7,34-triazahexacyclo[26.2.2.1^6,^9.1^10,^14.0^2,^7.0^15,^20]tetratriaconta-2,4,6(34),8,10(33),11,13,15(20),16,18-decaen-3-yl]acetic acid] | 60 nM | 
5 | Cc1c([C@H](OC(C)(C)C)C(=O)O)c2n3cc(nc3c1C)-c1cccc(c1)-c1c(F)cc(F)cc1O[C@@H](C)CCCCOC1(C)CCN2CC1 [Example 43, (2S)-2-(tert-Butoxy)-2-[(22S)-16,18-difluoro-4,5,22,28-tetramethyl-21,27-dioxa-1,7,34-triazahexacyclo[26.2.2.1^6,^9.1^10,^14.0^2,^7.0^15,^20]tetratriaconta-2,4,6(34),8,10(33),11,13,15(20),16,18-decaen-3-yl]acetic acid] |  | 11 nM
6 | Cc1c([C@H](OC(C)(C)C)C(=O)O)c2n3cc(nc3c1C)-c1cccc(c1)-c1c(F)cc(F)cc1O[C@@H](C)CCCCOC1(C)CCN2CC1 [Example 44, (2S)-2-(tert-butoxy)-2-[(22S)-16,18-difluoro-4,5,22,28-tetramethyl-21,27-dioxa-1,7,34-triazahexacyclo[26.2.2.1^6,^9.1^10,^14.0^2,^7.0^15,^20]tetratriaconta-2,4,6(34),8,10(33),11,13,15(20),16,18-decaen-3-yl]acetic acid] |  | 331 nM
7 | Cc1c([C@H](OC(C)(C)C)C(=O)O)c2n3cc(nc3c1C)-c1cccc(c1)-c1cc(F)cc(F)c1O[C@@H](C)CCCCOC1(C)CCN2CC1 [Example 45, (2S)-2-(tert-Butoxy)-2-[(22S)-17,19-difluoro-4,5,22,28-tetramethyl-21,27-dioxa-1,7,34-triazahexacyclo[26.2.2.1^6,^9.1^10,^14.0^2,^7.0^15,^20]tetratriaconta-2,4,6(34),8,10(33),11,13,15(20),16,18-decaen-3-yl]acetic acid] | 47 nM | 
8 | Cc1cc2nc3cn2c(c1[C@H](OC(C)(C)C)C(=O)O)N1CCC(C)(CC1)OCCCC[C@H](C)Oc1ccc(F)c(F)c1-c1cccc-3c1 [Example 46, (2S)-2-(tert-butoxy)-2-[(22S)-16,17-difluoro-4,22,28-trimethyl-21,27-dioxa-1,7,34-triazahexacyclo[26.2.2.1^6,^9.1^10,^14.0^2,^7.0^15,^20]tetratriaconta-2,4,6(34),8,10(33),11,13,15(20),16,18-decaen-3-yl]acetic acid] | 4 nM | 
9 | Cc1c([C@H](OC(C)(C)C)C(=O)O)c2n3cc(nc3c1C)-c1cccc(c1)-c1c(ccc(F)c1F)O[C@@H](C)CCCCOC1(C)CCN2CC1 [Example 47, (2S)-2-(tert-Butoxy)-2-[(22S)-16,17-difluoro-4,5,22,28-tetramethyl-21,27-dioxa-1,7,34-triazahexacyclo[26.2.2.1^6,^9.1^10,^14.0^2,^7.0^15,^20]tetratriaconta-2,4,6(34),8,10(33),11,13,15(20),16,18-decaen-3-yl]acetic acid] | 7 nM | 
10 | C=C(C)c1c(C)c([C@H](OC(C)(C)C)C(=O)O)c2n3cc(nc13)-c1cccc(c1)-c1cc(F)ccc1O[C@@H](C)CCCCOC1(C)CCN2CC1 [Example 48, (2S)-2-(tert-Butoxy)-2-[(22S)-17-fluoro-4,22,28-trimethyl-5-(prop-1-en-2-yl)-21,27-dioxa-1,7,34-triazahexacyclo[26.2.2.1^6,^9.1^10,^14.0^2,^7.0^15,^20]tetratriaconta-2,4,6(34),8,10(33),11,13,15(20),16,18-decaen-3-yl]acetic acid] | 24 nM | 
11 | Cc1c([C@H](OC(C)(C)C)C(=O)O)c2n3cc(nc3c1C(C)O)-c1cccc(c1)-c1c(ccc(F)c1F)O[C@@H](C)CCCCOC1(C)CCN2CC1 (stereo partly drawn) [Example 49, (2S)-2-(tert-Butoxy)-2-[(22S)-16,17-difluoro-5-(1-hydroxyethyl)-4,22,28-trimethyl-21,27-dioxa-1,7,34-triazahexacyclo[26.2.2.1^6,^9.1^10,^14.0^2,^7.0^15,^20]tetratriaconta-2,4,6(34),8,10(33),11,13,15(20),16,18-decaen-3-yl]acetic acid] |  | 2 nM
12 | Cc1c([C@H](OC(C)(C)C)C(=O)O)c2n3cc(nc3c1C(C)O)-c1cccc(c1)-c1c(ccc(F)c1F)O[C@@H](C)CCCCOC1(C)CCN2CC1 (stereo partly drawn) [Example 50, (2S)-2-(tert-Butoxy)-2-[(22S)-16,17-difluoro-5-(1-hydroxyethyl)-4,22,28-trimethyl-21,27-dioxa-1,7,34-triazahexacyclo[26.2.2.1^6,^9.1^10,^14.0^2,^7.0^15,^20]tetratriaconta-2,4,6(34),8,10(33),11,13,15(20),16,18-decaen-3-yl]acetic acid] |  | 10 nM
13 | Cc1c([C@H](OC(C)(C)C)C(=O)O)c2n3cc(nc3c1CO)-c1cccc(c1)-c1cc(F)ccc1O[C@@H](C)CCCCOC1(C)CCN2CC1 [Example 53, (2S)-2-(tert-Butoxy)-2-[(22S)-17-fluoro-5-(hydroxymethyl)-4,22,28-trimethyl-21,27-dioxa-1,7,34-triazahexacyclo[26.2.2.1^6,^9.1^10,^14.0^2,^7.0^15,^20]tetratriaconta-2,4,6(34),8,10(33),11,13,15(20),16,18-decaen-3-yl]acetic acid] | 8 nM | 
14 | Cc1c([C@H](OC(C)(C)C)C(=O)O)c2n3cc(nc3c1CO)-c1cccc(c1)-c1c(ccc(F)c1F)O[C@@H](C)CCCCOC1(C)CCN2CC1 [Example 54, (2S)-2-(tert-Butoxy)-2-[(22S)-16,17-difluoro-5-(hydroxymethyl)-4,22,28-trimethyl-21,27-dioxa-1,7,34-triazahexacyclo[26.2.2.1^6,^9.1^10,^14.0^2,^7.0^15,^20]tetratriaconta-2,4,6(34),8,10(33),11,13,15(20),16,18-decaen-3-yl]acetic acid] | 4 nM | 
15 | CCc1c(C)c([C@H](OC(C)(C)C)C(=O)O)c2n3cc(nc13)-c1cccc(c1)-c1cc(F)ccc1O[C@@H](C)CCCCOC1(C)CCN2CC1 [Example 55, (2S)-2-(tert-Butoxy)-2-[(22S)-5-ethyl-17-fluoro-4,22,28-trimethyl-21,27-dioxa-1,7,34-triazahexacyclo[26.2.2.1^6,^9.1^10,^14.0^2,^7.0^15,^20]tetratriaconta-2,4,6(34),8,10(33),11,13,15(20),16,18-decaen-3-yl]acetic acid] | 9 nM | 
16 | Cc1c([C@H](OC(C)(C)C)C(=O)O)c2n3cc(nc3c1C(C)C)-c1cccc(c1)-c1cc(F)ccc1O[C@@H](C)CCCCOC1(C)CCN2CC1 [Example 56, (2S)-2-(tert-Butoxy)-2-[(22S)-17-fluoro-4,22,28-trimethyl-5-(propan-2-yl)-21,27-dioxa-1,7,34-triazahexacyclo[26.2.2.1^6,^9.1^10,^14.0^2,^7.0^15,^20]tetratriaconta-2,4,6(34),8,10(33),11,13,15(20),16,18-decaen-3-yl]acetic acid] | 72 nM | 
17 | CCc1c(C)c([C@H](OC(C)(C)C)C(=O)O)c2n3cc(nc13)-c1cccc(c1)-c1cc(F)c(F)cc1O[C@@H](C)CCCCOC1(C)CCN2CC1 [Example 57, (2S)-2-(tert-Butoxy)-2-[(22S)-5-ethyl-17,18-difluoro-4,22,28-trimethyl-21,27-dioxa-1,7,34-triazahexacyclo[26.2.2.1^6,^9.1^10,^14.0^2,^7.0^15,^20]tetratriaconta-2,4,6(34),8,10(33),11,13,15(20),16,18-decaen-3-yl]acetic acid] | 13 nM | 
